Experimental data: patent US12060387B2, “Polypeptide-based shuttle agents for improving the transduction efficiency of polypeptide cargos to the cytosol of target eukaryotic cells, uses thereof, methods and kits relating to same” (priority 2015, dated 2024)
Like-named read-outs stand apart in the source and are kept apart here. Where a SMILES comes first, the peptide text is derived from it. Bridges are numbered along the chain shown (N, C = ends). Roman numbers before positions name the chains, in order. Where no end group is shown, it is not given here.

What was measured:
[1] = Cell toxicity / % cell viability by flow cytometry (cells in total events v. untreated); type: cell-based, Human; conditions: human, HeLa cells; for viability at 1 min, 20 µM: FIG. 29I, shuttle 20 μM, 1 minute; for viability at 1 h, 3.5 µM: antibody 0.5 μM, shuttle 3.5 μM, read-out: Cell viability (%) (± St. Dev.; n = 3), FIG. 19B
Text: (§1) The fluorescence of GFP was quantified using flow cytometry (Accuri C6, Becton, Dickinson and Company (BD)). Untreated cells were used to establish a baseline in order to quantify the increased fluorescence due to the internalization of the fluorescent protein in treated cells. The percentage of cells with a fluorescence signal above the maximum fluorescence of untreated cells, “mean %” or “Pos cells (%)”, is used to identify positive fluorescent cells. “Relative fluorescence intensity (FL1-A)” corresponds to the mean of all fluorescence intensities from each cell with a fluorescent signal after fluorescent protein delivery with the shuttle agent. Also, the events scanned by flow cytometry corresponding to cells (size and granularity) were analyzed. The cellular toxicity (% cell viability) was monitored comparing the percentage of cells in the total events scanned of treated cells comparatively to untreated cells.

[2] = as above; type: cell-based, human; conditions: human, THP-1 cells
[3] = tested on: HeLa cells; test: as above; type: cell-based, Human; conditions: HeLa; Protocol B; shuttle 50 μM; GFP-NLS 5 μM; 10 seconds
Text: as §1

[4] = Cell viability (%) (±St. Dev.; n = 3), HeLa, Protocol B, GFP-NLS 5 μM, read-out: Cell viability (%) (±St. Dev.; n = 3)
[5] = Cell viability (%) (±St. Dev.; n = 3), FIG. 29A, HeLa, Protocol B, shuttle 50 μM, GFP-NLS 5 μM, 10 seconds, read-out: Cell viability (%) (±St. Dev.; n = 3), FIG. 29A
[6] = Cell viability (%) (±St. Dev.; n = 3), FIG. 29F, read-out: Cell viability (%) (±St. Dev.; n = 3), FIG. 29F

## CC[C@H](C)[C@H](NC(=O)[C@H](CCCCN)NC(=O)[C@H](CCCCN)NC(=O)[C@H](Cc1ccccc1)NC(=O)[C@H](CC(C)C)NC(=O)[C@H](CCCCN)NC(=O)[C@H](Cc1c[nH]c2ccccc12)NC(=O)[C@H](CCCCN)NC(=O)[C@H](Cc1c[nH]cn1)NC(=O)[C@H](C)NC(=O)[C@H](Cc1c[nH]cn1)NC(=O)[C@H](Cc1c[nH]cn1)NC(=O)[C@H](C)NC(=O)[C@H](Cc1c[nH]cn1)NC(=O)[C@H](Cc1c[nH]cn1)NC(=O)[C@H](C)NC(=O)[C@@H](N)Cc1c[nH]cn1)C(=O)NCC(=O)N[C@@H](C)C(=O)N[C@H](C(=O)N[C@@H](CC(C)C)C(=O)N[C@@H](CCCCN)C(=O)N[C@H](C(=O)N[C@@H](CC(C)C)C(=O)N[C@H](C(=O)N[C@H](C(=O)NCC(=O)N[C@@H](Cc1ccc(O)cc1)C(=O)N[C@@H](C)C(=O)N[C@@H](CCCNC(=N)N)C(=O)N[C@@H](C)C(=O)N[C@@H](C)C(=O)N[C@@H](C)C(=O)N[C@@H](CCCNC(=N)N)C(=O)N[C@@H](CCC(N)=O)C(=O)N[C@@H](C)C(=O)N[C@@H](CCCNC(=N)N)C(=O)N[C@@H](C)C(=O)O)[C@@H](C)O)[C@@H](C)O)C(C)C)C(C)C [3HA-CM18-PTD4]
[1]; [4]
  viability at 1 min, 20 µM: 43.6 ± 2.8%

## CC(C)C[C@H](NC(=O)[C@H](CC(C)C)NC(=O)[C@H](CCCCN)NC(=O)[C@H](CCCCN)NC(=O)[C@H](CC(C)C)NC(=O)[C@H](CC(C)C)NC(=O)[C@H](CCCCN)NC(=O)[C@H](CCCCN)NC(=O)[C@H](CC(C)C)NC(=O)[C@H](CC(C)C)NC(=O)[C@@H](N)CS)C(=O)N[C@@H](CCCCN)C(=O)N[C@@H](CCCCN)C(=O)N[C@@H](CS)C(=O)O [C(LLKK)3C, reference compound] (H-CLLKKLLKKLLKKC-OH)
[1]
  viability at 10 s, 50 µM: 61.8 ± 0.1%

## CC(C)C[C@H](NC(=O)[C@H](CC(C)C)NC(=O)[C@H](CCCCN)NC(=O)[C@H](CCCCN)NC(=O)[C@H](CC(C)C)NC(=O)[C@H](CC(C)C)NC(=O)[C@H](CCCCN)NC(=O)[C@H](CCCCN)NC(=O)[C@H](CC(C)C)NC(=O)[C@H](CC(C)C)NC(=O)[C@H](CS)NC(=O)[C@H](Cc1c[nH]cn1)NC(=O)[C@H](Cc1c[nH]cn1)NC(=O)[C@H](Cc1c[nH]cn1)NC(=O)[C@H](Cc1c[nH]cn1)NC(=O)[C@H](Cc1c[nH]cn1)NC(=O)[C@@H](N)Cc1c[nH]cn1)C(=O)N[C@@H](CCCCN)C(=O)N[C@@H](CCCCN)C(=O)N[C@@H](CS)C(=O)N[C@@H](Cc1ccc(O)cc1)C(=O)N[C@@H](C)C(=O)N[C@@H](CCCNC(=N)N)C(=O)N[C@@H](C)C(=O)N[C@@H](C)C(=O)N[C@@H](C)C(=O)N[C@@H](CCCNC(=N)N)C(=O)N[C@@H](CCC(N)=O)C(=O)N[C@@H](C)C(=O)N[C@@H](CCCNC(=N)N)C(=O)N[C@@H](C)C(=O)O [His-C(LLKK)3C-PTD4] (H-HHHHHHCLLKKLLKKLLKKCYARAAARQARA-OH)
[2]
  viability at 15 s, 1 µM: 85.2 ± 2.8%
  viability at 0.5 min, 1 µM: 86 ± 2%
  viability at 1 min, 1 µM: 86.9 ± 3.8%
  viability at 2 min, 1 µM: 79.6 ± 2.8%
  viability at 24 h, 0.8 µM: 97.2 ± 2.2%
  viability at 72 h, 0.8 µM: 76.6 ± 3.4%
[1]
  viability at 10 s, 50 µM: 95 ± 2.7%
  viability at 1 min, 10 µM: 99.5 ± 2.7%
  viability at 2 min, 10 µM: 94.3 ± 3.2%
  viability at 5 min, 10 µM: 80.8 ± 4.4%

## N=C(N)NCCC[C@H](NC(=O)CNC(=O)[C@@H](N)Cc1ccc(O)cc1)C(=O)N[C@@H](CCCCN)C(=O)N[C@@H](CCCCN)C(=O)N[C@@H](CCCNC(=N)N)C(=O)N[C@@H](CCCNC(=N)N)C(=O)N[C@@H](CCC(N)=O)C(=O)N[C@@H](CCCNC(=N)N)C(=O)N[C@@H](CCCNC(=N)N)C(=O)N[C@@H](CCCNC(=N)N)C(=O)N[C@@H](CS)C(=O)O [TAT-Cys, reference compound]
[1]; HeLa, Protocol B, peptide 50 μM, GFP-NLS 5 μM, 10 seconds, read-out: Cell viability (%) (±St. Dev.; n = 3), FIG. 29D
  viability at 10 s, 50 µM: 94.6 ± 0.44%

## CC[C@H](C)[C@H](NC(=O)[C@@H](NC(=O)[C@H](Cc1ccccc1)NC(=O)[C@@H](N)CCCCN)[C@@H](C)O)C(=O)N[C@H](C(=O)N[C@@H](Cc1ccccc1)C(=O)N1CCC[C@H]1C(=O)N[C@@H](Cc1c[nH]cn1)C(=O)N[C@@H](CC(N)=O)C(=O)N[C@@H](CCC(N)=O)C(=O)N[C@@H](CCCCN)C(=O)NCC(=O)N[C@@H](CC(N)=O)C(=O)N[C@@H](Cc1c[nH]c2ccccc12)C(=O)N[C@@H](CCCCN)C(=O)N[C@@H](CC(N)=O)C(=O)N[C@H](C(=O)N1CCC[C@H]1C(=O)N[C@@H](CO)C(=O)N[C@@H](CC(N)=O)C(=O)N[C@@H](Cc1ccc(O)cc1)C(=O)N[C@@H](Cc1c[nH]cn1)C(=O)N[C@@H](Cc1ccc(O)cc1)C(=O)N[C@@H](CS)C(=O)N1CCC[C@H]1C(=O)N[C@@H](Cc1ccc(O)cc1)C(=O)N[C@@H](C)C(=O)N[C@@H](CCCNC(=N)N)C(=O)N[C@@H](C)C(=O)N[C@@H](C)C(=O)N[C@@H](C)C(=O)N[C@@H](CCCNC(=N)N)C(=O)N[C@@H](CCC(N)=O)C(=O)N[C@@H](C)C(=O)N[C@@H](CCCNC(=N)N)C(=O)N[C@@H](C)C(=O)O)C(C)C)C(C)C [VSVG-PTD4]
[1]; HeLa, Protocol B, shuttle 50 μM, GFP-NLS 5 μM, 10 seconds, read-out: Cell viability (%) (±St. Dev.; n = 3), FIG. 29E
  viability at 10 s, 50 µM: 100%

## GLFEALLELLESLWELLLEAYARAAARQARA [JST-PTD4]
[1]; Cell viability (%) (±St. Dev.; n = 3), FIG. 29E, read-out: Cell viability (%) (±St. Dev.; n = 3), FIG. 29E
  viability at 10 s, 50 µM: 98.9 ± 0.57%

## HHHAHHHKWKLFKKIGAVLKVLTTGYARAAARQARA [HA-CM18-PTD4]
[1]; [4]
  viability at 1 min, 20 µM: 68.3 ± 4.1%

## HHHHHHHHHHHHKWKLFKKIGAVLKVLTTGYARAAARQARA [12His-CM18-PTD4]
[1]; [4]
  viability at 1 min, 20 µM: 33.4 ± 4.3%

## HHHHHHKKALLALALHHLAHLALHLALALKKAYARAAARQARA [His-LAH4-PTD4]
[1]; HeLa, Protocol B, shuttle 50 μM, GFP-NLS 5 μM, 10 seconds, read-out: Cell viability (%) (±St. Dev.; n = 3), FIG. 29A
  viability at 10 s, 50 µM: 98 ± 1.5%

## HHHHHHKWKLFKKIGAVLKVLTTGGWTLNSAGYLLKINLKALAALAKKIL [His-CM18-Transportan (TPT)]
[1]; [5]
  viability at 10 s, 50 µM: 41.3 ± 3.3%
[3]
  Cell viability (%) (±St. Dev.; n = 3), FIG. 29E: 41.3 ± 3.29%

## HHHHHHKWKLFKKIGAVLKVLTTGRRRRRRRRR [His-CM18-9Arg]
[1]; [5]
  viability at 10 s, 50 µM: 45.8 ± 5.4%
[3]
  Cell viability (%) (±St. Dev.; n = 3), FIG. 29E: 45.8 ± 3.53%

## HHHHHHKWKLFKKIGAVLKVLTTGYARAAARQARAHHHHHH [His-CM18-PTD4-His]
[1]; Cell viability (%) (±St. Dev.; n = 3), FIG. 29G, HeLa, Protocol B, shuttle 10 μM, GFP-NLS 5 μM, incubation 1 min, read-out: Cell viability (%) (±St. Dev.; n = 3), FIG. 29G
  viability at 1 min, 10 µM: 68.1 ± 2.7%
[1]; Cell viability (%) (±St. Dev.; n = 3), FIG. 29G, HeLa, Protocol B, shuttle 10 μM, GFP-NLS 5 μM, incubation 2 min, read-out: Cell viability (%) (±St. Dev.; n = 3), FIG. 29G
  viability at 2 min, 10 µM: 61.6 ± 3.2%
[1]; Cell viability (%) (±St. Dev.; n = 3), FIG. 29G, HeLa, Protocol B, shuttle 10 μM, GFP-NLS 5 μM, incubation 5 min, read-out: Cell viability (%) (±St. Dev.; n = 3), FIG. 29G
  viability at 5 min, 10 µM: 41.2 ± 4.4%
[1]; [4]
  viability at 1 min, 20 µM: 78.6 ± 1.1%

## HHHHHHYARAAARQARA [His-PTD4, reference compound]
[1]
  viability at 10 s, 50 µM: 96.5 ± 0.28%

## HHHKWKLFKKIGAVLKVLTTGYARAAARQARA [3His-CM18-PTD4]
[1]; [4]
  viability at 1 min, 20 µM: 39.2 ± 3.3%

## I: KWKLFKKIGAVLKVLTTGRQIKIWFQNRRMKWKKC / II: KWKLFKKIGAVLKVLTTGRQIKIWFQNRRMKWKKC (disulfide I:35-II:35) [dCM18-Penetratin-Cys]
[1]; HeLa
  viability at 1 h, 3.5 µM: 74 ± 9%

## KWKLFKKIGAVLKVLTTG [CM18, reference compound]
[1]; Cell viability (%) (±St. Dev.; n = 3), FIG. 29D, HeLa, Protocol B, peptide 50 μM, GFP-NLS 5 μM, 10 seconds, read-out: Cell viability (%) (±St. Dev.; n = 3), FIG. 29D
  viability at 10 s, 50 µM: 95 ± 1.2%

## KWKLFKKIGAVLKVLTTGHHHHHHYARAAARQARA [CM18-His-PTD4]
[1]; [4]
  viability at 1 min, 20 µM: 57.7 ± 4.2%

## KWKLFKKIGAVLKVLTTGRQIKIWFQNRRMKWKKC [CM18-Penetratin-Cys]
[1]; HeLa
  viability at 1 h, 3.5 µM: 73 ± 9.5%

## LIRLWSHLIHIWFQNRRLKWKKKYARAAARQARA [EB1-PTD4]
[1]
  viability at 10 s, 50 µM: 39 ± 5.6%
  viability at 1 min, 10 µM: 61.7 ± 2.7%
  viability at 2 min, 10 µM: 56.6 ± 3.2%
  viability at 5 min, 10 µM: 55.8 ± 4.4%

## MHHHHHHKWKLFKKIGAVLKVLTTGYGRKKRRQRRRC [Met-His-CM18-TAT-Cys]
[1]; Cell viability (%) (±St. Dev.; n = 3), FIG. 29E, HeLa, Protocol B, shuttle 50 μM, GFP-NLS 5 μM, 10 seconds, read-out: Cell viability (%) (±St. Dev.; n = 3), FIG. 29E
  viability at 10 s, 50 µM: 41.4 ± 3.91%

## RRLSYSRRRFWEAKLAKALAKALAKHLAKALAKALKACEA [SynB3-KALA]
[1]; [6]
  viability at 10 s, 50 µM: 91.1 ± 0.82%

## RRRRRRRRRWEAKLAKALAKALAKHLAKALAKALKACEA [9Arg-KALA]
[1]; [6]
  viability at 10 s, 50 µM: 62.8 ± 5.11%

## WEAKLAKALAKALAKHLAKALAKALKACEA [KALA, reference compound]
[1]
  viability at 10 s, 50 µM: 84 ± 0.7%

## YARAAARQARA [PTD4, reference compound]
[1]; Cell viability (%) (±St. Dev.; n = 3), FIG. 29D, read-out: Cell viability (%) (±St. Dev.; n = 3), FIG. 29D
  viability at 10 s, 50 µM: 94 ± 4.5%
